The source of these data is patent US20040101834A1, “Method of and kit for assessing responsiveness of cancer patients to antifolate chemotherapy” (priority 2001, published 2004).

The test system of assay [1] is mouse MTX^rA leukemia transfectant harboring Glu45Lys RFC cDNA. Nature of the assay: Folate growth requirement in RFC transfectants. In kind it is cell-based.
Assay [2] has as its system mouse MTX^rA leukemia transfectant harboring Arg27/His56 RFC cDNA. Put plainly: Folate growth requirement in RFC transfectants. In kind it is cell-based.
For assay [3], the system named is parental human CEM leukemia cells (CEM/WT). Nature of the assay: Folate growth requirement. Conditions: read-out: EC50, concentration necessary to support 50% of maximal growth, Table 6. The class given is cell-based. The source says: (§1) Table 6 below summarizes the antifolate growth inhibition and folate growth requirement in parental human CEM leukemia cells and their GW70 subline.

Assay [4] deals with GW70 cells (GW1843U89-resistant CEM subline). Nature of the assay: Folate growth requirement. In kind it is cell-based, human.
Excerpt: as §1

In assay [5] the test system is mouse MTX^rA leukemia transfectant harboring His27 RFC cDNA. Nature of the assay: Folate growth requirement in RFC transfectants. In kind it is cell-based.
The subject of assay [6] is RFC in parental CEM cells (CEM/WT). Put plainly: [3H]MTX and [3H]folic acid transport. The class given is cell-based, human. The procedure: (Anti)folate transport measurements were performed essentially as previously described (Jansen et al., 1998). Briefly, cells were harvested in the mid-log phase, or collected from ALL patient donors, washed twice with Hepes-buffer saline solution (HBSS, pH 7.4) and concentrated to a density of 2×10^7 cells/ml in an anion-free MHS buffer (1 ml) containing 20 mM HEPES, 225 mM sucrose at pH 7.4 (adjusted with MgO), 37° C. […] For transport studies with [^3H]folic acid, HBSS buffer was supplemented with 5 μM trimetrexate in order to block folic acid reduction (Assaraf and Goldman, 1997). At selected transport time intervals, ranging from 0.5-30 minutes, uptake was terminated by the addition of 10 ml ice-cold HBSS, after which centrifugation and cell wash with another 10 ml ice-cold HBSS were performed. The final cell pellet was then counted for radioactivity.

In another assay the target is T1, RFC in GW70/LF cells (Homo sapiens, UniProt P41440, D88H/E45K/H27R/S46I/V29L).
T1 construct: a prominent overproduction of the native ˜80 kDa and truncated 43 kDa RFC proteins; endogenous in cells; host or cells: GW70/LF (GW70 cells adapted to low folate; 5-fold RFC gene amplification)
T1 sequence (P41440 1-591 H27R/V29L/E45K/S46I/D88H): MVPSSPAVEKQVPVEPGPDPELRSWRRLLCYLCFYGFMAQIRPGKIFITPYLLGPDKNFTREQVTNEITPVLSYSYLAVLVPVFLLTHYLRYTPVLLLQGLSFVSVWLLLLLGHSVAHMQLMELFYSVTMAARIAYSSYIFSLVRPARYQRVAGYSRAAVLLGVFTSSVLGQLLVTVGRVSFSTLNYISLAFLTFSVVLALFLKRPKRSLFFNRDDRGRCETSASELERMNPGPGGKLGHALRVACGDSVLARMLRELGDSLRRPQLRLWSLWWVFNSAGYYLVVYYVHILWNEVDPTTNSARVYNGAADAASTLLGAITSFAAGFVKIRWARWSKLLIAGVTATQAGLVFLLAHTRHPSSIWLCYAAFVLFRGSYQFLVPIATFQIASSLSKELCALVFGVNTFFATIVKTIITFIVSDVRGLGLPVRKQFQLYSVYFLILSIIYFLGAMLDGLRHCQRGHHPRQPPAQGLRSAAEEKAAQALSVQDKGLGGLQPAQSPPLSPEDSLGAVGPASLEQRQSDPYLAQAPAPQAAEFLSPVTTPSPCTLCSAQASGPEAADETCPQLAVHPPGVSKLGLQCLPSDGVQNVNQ
Nature of the assay: [3H]MTX and [3H]folic acid transport. The class given is cell-based. Conditions: GW70/LF compared to parental cells. The procedure:
(§2) At selected transport time intervals, ranging from 0.5-30 minutes, uptake was terminated by the addition of 10 ml ice-cold HBSS, after which centrifugation and cell wash with another 10 ml ice-cold HBSS were performed. The final cell pellet was then counted for radioactivity.

The target in a further assay is T2, RFC in GW70 cells (Homo sapiens, UniProt P41440, E45K/H27R/S46I/V29L).
T2 construct: endogenous in cells; host or cells: CEM-GW70 (GW1843U89-resistant CCRF-CEM subline)
T2 sequence (P41440 1-591 H27R/V29L/E45K/S46I): T1 sequence (P41440 1-591 H27R/V29L/E45K/S46I/D88H) with H88D
Put plainly: [3H]MTX and [3H]folic acid transport. The class given is cell-based. As to the method: as §2

Assay [7] has as its system mouse MTX^rA leukemia transfectant harboring native RFC (Arg27) cDNA. Nature of the assay: Folate growth requirement in RFC transfectants. The class given is cell-based.
The subject of assay [8] is mouse MTX^rA leukemia transfectant harboring His27/His56 RFC cDNA. Nature of the assay: Folate growth requirement in RFC transfectants. The class given is cell-based.
Assay [9] relates to parental human CEM leukemia cells (CEM/WT). Nature of the assay: Antifolate growth inhibition, 72 h drug exposure. In kind it is cell-based. Conditions: Homo sapiens.
For a further assay, the target named is T3, human RFC (Homo sapiens, UniProt P41440).
T3 sequence (P41440 1-591): T1 sequence (P41440 1-591 H27R/V29L/E45K/S46I/D88H) with R27H, L29V, K45E, I46S, H88D
The note with it: Westerhof et al., 1995; read-out: Ki as transport substrate; cited from earlier work.

The subject of assay [10] is GW70 cells (GW1843U89-resistant CEM subline). Nature of the assay: Antifolate growth inhibition, 72 h drug exposure. In kind it is cell-based, human. Conditions: for IC50: Homo sapiens, 72 h.
The next assay concerns GW70/LF cells. Nature of the assay: Antifolate growth inhibition, 72 h drug exposure. The class given is cell-based. The note with it: Homo sapiens, 72 h. As to the method:
The GW70 subline was established by stepwise exposure of parental CEM cells to gradually increasing concentrations of the potent thymidylate synthase inhibitor, GW1843U89 in normal growth medium; this selection was initiated at 1.5 nM and terminated at 70 nM GW1843U89, the cells were therefore termed GW70. GW70/LF cells were established by gradual deprivation of folic acid from the growth medium; this was terminated at a concentration of 5 nM folic acid.

For another assay, the target named is T4, RFC in K562 cells (Homo sapiens, UniProt P41440).
T4 construct: The RFC in K562 cells contains both N- and O-linked glycosylated residues; host or cells: K562 cells
T4 sequence (P41440 1-591): T1 sequence (P41440 1-591 H27R/V29L/E45K/S46I/D88H) with R27H, L29V, K45E, I46S, H88D
Conditions: inhibition of glycosylation; Km unchanged; cited from earlier work.

[11] abbreviates: Mus musculus, read-out: EC50, concentration necessary to support 50% of maximal growth of control cells.
Setting [12] is: CEM/WT, influx, initial (3 min) uptake rates, Lineweaver-Burk.

Where a chain is given by its changes, count along the chain named. Read-outs that look alike come from different tables or passages of the source. Marks after values point to notes of the source that are not given here.

A word on the Km: it is the substrate concentration at which the rate is half of its maximum. Consider `Nc1nc2ncc(CNc3ccc(C(=O)N[C@@H](CCC(=O)O)C(=O)O)cc3)nc2c(=O)[nH]1` [Folic Acid, folic acid], for which the “MTX IC50/folic acid EC50 ratio” value is “(4.5)” in [1] (Glu45Lys transfectant, in parentheses); “(1.1))” in [2] (in parentheses); “(0.99)” in assay [5] (in parentheses); “(1)^d” in assay [7] (Arg27 transfectant, in parentheses); “(2.82)” in assay [8] (in parentheses). The EC50 in [1] (setting [11]) was found to be 3.2 ± 0.8 nM; in assay [2] (setting [11]), 13.1 ± 2.3 nM; in assay [3], 44.9 ± 3.7 nM; in assay [4] (Homo sapiens, read-out: EC50, concentration necessary to support 50% of maximal growth, Table 6, column GW (GW70)) it was 24.2 ± 7.1 nM; in assay [5] (setting [11]) it was 14.6 ± 0.5 nM; in [7] (Mus musculus, read-out: EC50, concentration necessary to support 50% of maximal growth of control cells, Arg27 (native RFC) transfectant), 14.4 ± 1.7 nM. Moreover, the EC50 in [8] (setting [11]) came out at 5.1 ± 1.2 nM. Further, the “fold decrease in the folic acid growth requirement” value in [4] (GW70 vs parental CEM) is given as 2 fold. Further, in [6] (setting [12]), the Km stood at 175 ± 39 µM. Also, in assay [6] (setting [12]), the Vmax amounted to 3.6 ± 1.5 pmol/min/10^7. The folic acid influx in [6] (parental CEM, folic acid reduction blocked by trimetrexate, n=8) is 0.19±0.05 pmol/min/10^7 cells; on RFC in GW70 cells (GW70, folic acid reduction blocked by trimetrexate, n=8), 0.66±0.17 pmol/min/10^7 cells. Further, the “fold increase in the transport Vmax” value on RFC in GW70/LF cells is on record as 15 fold. Also, the “fold increase in influx and steady-state transport levels” value at RFC in GW70 cells (GW70 compared to parental CEM cells) is greater than 3 fold. The “fold decrease in the transport Km” value at RFC in GW70 cells (GW70 vs CEM) stood at 10 fold. In addition, the “fold increased affinity of RFC” value on RFC in GW70 cells (GW70 vs parental CEM) was determined as 11 fold.
The term Ki denotes a dissociation constant, usually derived from enzyme kinetics or from competition with a known ligand. For `Cc1nc2ccc3ccc(CNc4ccc5c(c4)CN([C@@H](CCC(=O)O)C(=O)O)C5=O)cc3c2c(=O)[nH]1` [GW1843], the IC50 in assay [9] (72 h, read-out: IC50, antifolate concentration that inhibits cell growth by 50%) came to 1.8 ± 0.22 nM; in assay [9] (Table 10, CEM/WT, 72 h drug exposure, read-out: IC50), 2.4 ± 0.4 nM; in [10], 123 ± 48 nM; in assay [10] (read-out: IC50, antifolate concentration that inhibits cell growth by 50%), 172 ± 34.5 nM; in the assay on GW70/LF cells (Table 10, GW70/LF) it was 2.5 ± 0.7 nM; in the assay on GW70/LF cells (Table 10, GW70/LF grown in the presence of 2.3 µM folic acid), 7.5 ± 1.5 nM. Also, the inhibitory constant (Ki) at human RFC was 800 nM. The “fold resistance / cross-resistance” value in [10] (GW70 vs parental CEM cells) was found to be 100 fold. Besides, the “fold decreased affinity of RFC” value at RFC in GW70 cells (GW70 vs parental CEM) was 6 fold.
In the case of tunicamycin, at RFC in K562 cells, the “reduction of transport (Vmax)” value was “approximately 30%”.
